Results as given in patent publication US11466286B2, “Methods and compositions for conferring and/or enhancing herbicide tolerance using protoporphyrinogen oxidase or variant thereof” (FarmHannong Co., Ltd., priority 2016, dated 2022).

How the values were obtained:
[1] = tested on: wild type A. thaliana (Col-0 ecotype); assay: Herbicide injury of A. thaliana plants; assay type: in vivo, Arabidopsis thaliana; settings: 1 μM spray, within 7 days
Procedure: For comparison, the same test was conducted using the wild type A. thaliana (Col-0 ecotype).

[2] = tested on: Kwangan soybean (non-transformed); assay: Herbicide tolerance of soybean; assay type: in vivo; settings: 5 μM painted on leaves, 7 days
[3] = tested on: A. thaliana T3 lines with CyPPO10 wild type or mutants (F360M, F360I, F360L, F360C, A167C), CyPPO13 wild type or mutants (F373M, F373C, F373I, A177C …); assay: Seed germination of A. thaliana transformants on herbicide media; assay type: in vivo, Arabidopsis thaliana; settings: 7 days
[4] = tested on: A. thaliana transformants with CyPPO10 or CyPPO13 or variants; assay: Herbicide tolerance of A. thaliana transformants (T1); assay type: in vivo, Arabidopsis thaliana; settings: 1 μM spray
Text: A. thaliana was transformed with a binary vector having ORF of a selectable marker, bar gene (glufosinate-tolerant), and that of each encoding gene of CyPPO10 or CyPPO13 variants. The transgenic plant was examined for cross-tolerance towards glufosinate and PPO-inhibiting herbicides. The bar gene was also used to examine whether the transgene was stably inherited during generations. NOS promoter and E9 terminator were used for bar gene expression.

[5] = tested on: CyPPO13 (Synechococcus sp. JA-3-3Ab PPO, SEQ ID NO: 4) variant F373H, MBP fusion; assay: PPO inhibition assay; assay type: biochemical; settings: herbicide 0-5,000 nM, 50 μM substrate
Procedure: (§1) The enzyme activities of PPO protein and PPO protein variants were examined, and inhibition assay by PPO-inhibiting herbicides was conducted. It was confirmed that the PPO protein has low water-solubility, but in case of being expressed as a fusion protein with MBP (maltose binding protein) (MBP-PPO), the PPO protein is able to be stably expressed as water-soluble form. Therefore, the wild type and variant proteins which were expressed in the form of fusion protein with MBP were used in the present test (refer to FIG. 4).
(§2) At first, a substrate of PPO protein, Protoporphyrinogen IX was synthesized. This process was performed in the space where nitrogen gas is streamed. 6 mg of protoporphyrin IX was dissolved in 20% (v/v) EtOH 20 ml, and stirred under dark condition for 30 minutes. The obtained protoporphyrinogen IX solution was put into a 15 ml screw tube in an amount of 800 and flushed with nitrogen gas for 5 minutes. To this, 1 g of sodium amalgam was added and vigorous shaking was performed for 2 minutes. The lid was open to exhaust hydrogen gas in the tube. Thereafter, the lid was closed and incubated for 3 minutes. The […] was filtered using syringe and cellulose membrane filter. To 600 μl of the obtained […], 2M MOPS [3-(N-morpholino)propanesulfonic acid] was added in an amount of approximately 300 thereby adjusting pH to 8.0. To determine the enzyme activity of PPO protein, a reaction mixture was prepared with the following composition (based on 10 ml): 50 mM Tris-Cl (pH 8.0); 50 mM NaCl; 0.04% (v/v) Tween 20; 40 mM glucose (0.072 g); 5 units glucose oxidase (16.6 mg); and 10 units catalase (1 μl).
(§3) Two hundred microliters (200 μl) of reaction mixture containing a purified PPO protein were placed in 96 well plates, and preincubated for 30 min at room temperature to reduce the oxygen concentration by the reaction of glucose oxidase-catalase. The mineral oil was layered and then the reaction was initiated by adding the substrate, […], to a final concentration of 50 μM. The reaction proceeded at room temperature for 30 min and the fluorescence of protoporphyrin IX was measured using Microplate reader (Sense, Hidex) (excitation: 405 nm; emission: 633 nm). To calculate the PPO enzyme activity, protoporphyrinogen IX solution was kept open in the air to oxidize the solution (overnight). To this, 2.7N HCl was added, and the absorbance at 408 nm was measured. A standard curve was generated using standard protoporphyrin IX, and the PPO activity was measured by calibration of protoporphyrin IX using the standard curve of protoporphyrin IX.
(§4) The final concentration of each herbicide was as follows: […]

[6] = tested on: CyPPO13 (Synechococcus sp. JA-3-3Ab PPO, SEQ ID NO: 4) variant F373C, MBP fusion; assay: PPO inhibition assay; assay type: biochemical; settings: herbicide 0-5,000 nM, 50 μM substrate
Procedure: as §1, §2, §3, §4

[7] = tested on: CyPPO13 (Synechococcus sp. JA-3-3Ab PPO, SEQ ID NO: 4) variant F373I, MBP fusion; assay: PPO inhibition assay; assay type: biochemical; settings: herbicide 0-5,000 nM, 50 μM substrate
Procedure: as §1, §2, §3, §4

[8] = tested on: CyPPO13 (Synechococcus sp. JA-3-3Ab PPO, SEQ ID NO: 4) variant F373M, MBP fusion; assay: PPO inhibition assay; assay type: biochemical; settings: herbicide 0-5,000 nM, 50 μM substrate
[9] = tested on: soybean transformed with CyPPO10 A167L+F360M; assay: Herbicide tolerance of soybean; assay type: in vivo
[10] = tested on: PPO-deficient BT3 E. coli (ΔPPO) with A. thaliana PPO1 mutant AtPPO1 SLYM (Y426M, S305L, SEQ ID NO: 7); assay: Growth of transformed BT3 (ΔPPO) on tiafenacil media; assay type: cell-based
Procedure: (§5) After transforming PPO-deficient BT3 E. coli (ΔPPO) with CyPPO10 or CyPPO13, the transformed BT3 (ΔPPO) was cultured on LB agar plates containing PPO-inhibiting herbicide to examine the growth level of the transformed BT3 (ΔPPO). BT3 (ΔPPO) strain was obtained from Hokkaido University (Japan). The BT3 (ΔPPO) strain is deficient in hemG-type PPO and has kanamycin tolerance (refer to “Watanabe et al., Dual targeting of spinach protoporphyrinogen oxidase II to mitochondria and chloroplasts by alternative use of two in-frame […], JBC 2001 276(23):20474-20481; Che et al., Molecular Characterization and Subcellular Localization of Protoporphyrinogen Oxidase in Spinach Chloroplasts, Plant Physiol. 2000 September; 124(1):59-70”).
(§6) For seed culture of E. coli transformed with respective genes, each single colony of E. coli transformant as provided above was cultured in 3 ml of LB broth containing chloramphenicol overnight (220 rpm, 37° C.), and 50 to 100 μl were subcultured in a new 3 ml of LB broth, and they were cultured until absorbance (OD600) became 0.5 to 1, and they were diluted with LB broth to absorbance (OD600) of 0.5. The diluted solution was serially diluted again 5 times by a factor of one tenth with LB broth. […] The LB Agar media were incubated at 37° C., under light condition, and level of inhibiting growth was observed after 16 to 20 hours of incubation.
(§7) Plant physiol. 2003 133:736-747).

[11] = tested on: PPO-deficient BT3 E. coli (ΔPPO) with wild type A. thaliana PPO1 (AtPPO1 WT, SEQ ID NO: 5); assay: as above; assay type: cell-based; settings: 100 μM tiafenacil
Procedure: as §5, §6, §7

COC(=O)CCNC(=O)C(C)Sc1cc(-n2c(=O)cc(C(F)(F)F)n(C)c2=O)c(F)cc1Cl (centres unmarked) [Tiafenacil]
plant damage [1]: completely died | leaf damage [2]: severe damage | seed germination ([3]; 25 μM glufosinate+30 nM tiafenacil+40 nM saflufenacil): germinated | seed germination ([3]; 25 μM glufosinate+70 nM tiafenacil): germinated | plant damage [4]: no damage | IC50 [5]: 114 nM | IC50 [6]: 212 nM | IC50 [7]: 135 nM | IC50 [8]: 56 nM | leaf damage ([9]; T0, 15 μM painted on leaves): no damage | damage level ([9]; T1, 25 μM tiafenacil spray, 5 days): no damage | growth ([10]; 400 μM tiafenacil): hardly grew | growth ([10]; from 100 μM tiafenacil): gradually started to exhibit growth inhibition | growth [11]: did not grow
